From patent US7192939B2, “Pestalotiopsis microsporia isolates and compounds derived therefrom” (Montana State University, priority 2002, dated 2007)
In brackets after ≈: the same amount, converted by molar mass.

What was measured:
Pythium ultimum = experiment: Antimycotic activity, minimum inhibitory concentration in potato dextrose broth; type: cell-based
Protocol: (§1) The minimum inhibitory concentration of (1) required to give a 100% reduction of growth of a test fungus over a course of two days was determined by dissolving (1) in 1 ml of potato dextrose broth (PDB). An agar plug, 1 cm in dia, containing the test fungus was then added to the broth and the organisms incubated at 23° C. for 48 hr. At that time the plate containing the fungi was examined visually for growth and the concentration of compound reducing growth by 100% was recorded. Fungi tested were each plant pathogenic and included an oomycete—Pythium ultimum, an ascomycete—Sclerotinia sclerotiorum, and a basidiomycete—Rhizoctonia solani.
Isopestacin (1) is antimycotic, with total inhibition of Pythium ultimum, a plant pathogenic oomycete, at 40 μg/ml at 48 hr.
Pestacin was also analyzed for antifungal activity using previously described methodology. […] This level of activity is slightly greater than that previously observed for isopestacin.

Solubility in water = type: physicochemical
[1] = ESR hydroxyl free radical scavenging (Fenton reaction, DEPMPO spin trap); type: biochemical; conditions: 0.18 mM OH• chemically generated (Fenton), read-out: concentration required to reduce hydroxyl free radical by 50%
Protocol: EPR techniques used in this work are primarily those reported by Sheu et al., 2000 and Zhu and Fung, 2000. All EPR spectra were recorded on a Bruker model ESP 300E spectrometer, X-band operating at a microwave frequency 9.787 gHz, a microwave power of 10 mW, a modulation frequency of 100.0 kHz, and a modulation amplitude of 0.367 mT. The magnetic field range was 334±80 mT, a time constant of 40.96 ms, a receiver gain of 2×10^4 and a magnetic fieldsweep rate of 0.48 mT/s. The magnetic field spacings are similar to those reported by Zhang et al (2000). The superoxide O2 ^−• was generated by the action of hypoxanthine or xanthine on water and oxygen through the catalysis of xanthine oxidase. The hydroxyl free radical OH^• is generated by the well-known Fenton reaction: Fe^2++H2O2=Fe^3++OH^−+OH^•, where 0.09 mM ferrous sulfate and 0.18 mM H2O2 were used. All enzymes and their respective substrates were purchased from Sigma Chemical Co., while other reagents were acquired from Calbiochem, and Life-Tech. […] Test compounds were added to the tube and their effects on signal reduction (antioxidant activity) were monitored. […]
Testing confirms that Isopestacin (1) indeed has antioxidant activity as determined by ESR measurements described in the experimental section. […] Simultaneously, EPR spectra are recorded of the free electrons associated with the free radicals. […]

[2] = Lipid free radical reduction; type: biochemical
Excerpt: Testing confirms that Isopestacin (1) indeed has antioxidant activity as determined by ESR measurements described in the experimental section. The compound is able to scavenge superoxide O2^−• and OH^• radicals in solution. The superoxide was generated in our experimental set-up by the action of hypoxanthine on water and oxygen via the catalysis of xanthine oxidase. On the other hand OH^• was generated via the Fenton reaction of hydrogen peroxide on ferrous iron. Simultaneously, EPR spectra are recorded of the free electrons associated with the free radicals. […] It should be noted that since superoxide was generated via the xanthine oxidase reaction it was no possible to accurately calculate the exact molar concentration of O2^−• in these reactions. However, (1) is extremely capable of scavenging the hydroxyl free radical (OH^•) with 0.22 mM required to reduce this free radical (0.18 mM OH^•—chemically generated) by 50%. This is an important biological and chemical property of (1) since OH^• is believed to be more detrimental to cell death directly than O2^−•. On the other hand, (1) has no effect in reducing the lipid free radical LOO^−•.

[3] = ESR superoxide scavenging (hypoxanthine/xanthine oxidase, EMPO spin trap); type: biochemical; conditions: superoxide generated by hypoxanthine/xanthine oxidase, read-out: concentration needed to reduce the free radical O2−• (ESR signal) by 50%
Protocol: All EPR spectra were recorded on a Bruker model ESP 300E spectrometer, X-band operating at a microwave frequency 9.787 gHz, a microwave power of 10 mW, a modulation frequency of 100.0 kHz, and a modulation amplitude of 0.367 mT. The magnetic field range was 334±80 mT, a time constant of 40.96 ms, a receiver gain of 2×10^4 and a magnetic fieldsweep rate of 0.48 mT/s. […] The superoxide O2 ^−• was generated by the action of hypoxanthine or xanthine on water and oxygen through the catalysis of xanthine oxidase. […] All enzymes and their respective substrates were purchased from Sigma Chemical Co., while other reagents were acquired from Calbiochem, and Life-Tech. The reaction mixture was transferred to an EPR flat tube for signal detection. Also placed in the tube was a spin trap compound-2-ethoxycarbonyl-2-methyl-3,4-dihydro-2H-pyrrole-1-oxide (EMPO) to trap the superoxide. […] Test compounds were added to the tube and their effects on signal reduction (antioxidant activity) were monitored. Because of the water insolubility of (1) it was necessary to dissolve it first into a small amount of methanol and then add it to the reaction mixture. […]
The superoxide was generated in our experimental set-up by the action of hypoxanthine on water and oxygen via the catalysis of xanthine oxidase. […] Simultaneously, EPR spectra are recorded of the free electrons associated with the free radicals. […]

Rhizoctonia solani = experiment: Antimycotic activity, minimum inhibitory concentration in potato dextrose broth; type: cell-based
Protocol: as §1

Sclerotinia sclerotiorum = experiment: as above; type: cell-based
Protocol: as §1

[4] = Total oxyradical scavenging capacity (TOSC) assay; type: biochemical; conditions: for IC50: TOSC assay, ABAP initiator, KMBA, 37° C., ethylene by GC, read-out: solution concentration required to reduce the effects of the free radical initiator by 50%
Excerpt: The similarity of pestacin to isopestacin, described herein and in Strobel, G. A.; Ford, E.; Worapong, J.; Harper, J. K.; Arif, A. M.; Grant, D. M.; Fung, P.; Chau, R. M. W. Phytochem. […] Pestacin was thus analyzed using the total oxyradical scavenging capacity (TOSC) assay. This analysis assesses a compounds ability to inhibit a free radical initiator's oxidation of α-Keto-γ-methiolbutyric acid to release ethylene gas. Compounds with antioxidant properties thus decrease the production of ethylene gas, as measured gas chromatographically. Pestacin required a 1.7±0.1 mM solution to reduce the effects of the free radical initiator by 50%. In contrast, the water-soluble vitamin E derivative, troxol, required an 18.8±0.9 mM solution to exert the same effect. Pestacin, therefor, appears to be an extremely effective antioxidant as measured by this assay. A mechanism for antioxidant activity may also be proposed based on the structure of pestacin.
Antioxidant activity of (1) was assessed by dissolving 8.7 mg of (1) in 200 μL of DMSO then diluting the solution 1:10, 1:100, and 1:1000 in DMSO. A 10 μL volume of each sample was then combined in a 10 mL vial with 100 μL of 100 mM potassium phosphate buffer, 100 μL of 2 mM α-keto-γ-methiolbuthric acid (KMBA), and 690 μL of H2O. Control samples were also prepared containing 100 μL of 100 mM potassium phosphate buffer, 100 μL of 2 mM KMBA, and 700 μL of H2O. The sealed samples were then incubated at 37° C. for 5 minutes followed by injection of 100 μL of the free radical initiator, 2,2′-azobis(2-methylpropionamidine) (ABAP). Peroxy radicals, generated by thermal homolysis of ABAP at 37° C., then oxidized KMBA to produce ethylene gas. Ethylene production was monitored by gas chromatography of 1 mL samples removed every 12 minutes over a 96-minute period. Chromatographic analysis was performed on a Hewlett-Packard 5890A gas chromatograph equipped with a Supelco 6-foot Porpak Q packed column, a flame ionization detector, and employing helium as a carrier gas (30 mL/min). […]

solubility in water (Solubility in water)	IC50 [1] [mM]	IC50 [3] [mM]	MIC (Pythium ultimum; Globisporangium ultimum, previously described methodology, read-out: minimum inhibitory concentration against Pythium ultimum) [µg/mL]	IC50 [4] [mM]	Structure (SMILES)	concentration giving total inhibition of Pythium ultimum (Pythium ultimum; at 48 hr, 100% reduction of growth) [µg/mL]	effect in reducing the lipid free radical LOO−• [2]	inhibitory effect on Rhizoctonia solani (Rhizoctonia solani)	inhibitory effect on Sclerotinia sclerotiorum (Sclerotinia sclerotiorum)	antioxidant activity relative to troxol ([4]; pestacin vs vitamin E derivative troxol) [times]
very low solubility in water	0.22	≥ 0.185			Cc1cc(O)c2c(c1)C(c1c(O)cccc1O)OC2=O (racemic) [Isopestacin, 1-oxo-3-(9,13-dihydroxybenzene)-5-methyl-7-hydroxy-1,3-dihydrobenzofuranone]	40	no effect	no inhibitory effect	no inhibitory effect	
			~10 (≈ 38.7 µM)	1.7 ± 0.1	Cc1cc(O)c2c(c1)COC2c1c(O)cccc1O (racemic) [Pestacin]					11
				18.8 ± 0.9	Cc1c(C)c2c(c(C)c1O)CCC(C)(C(=O)O)O2 (centres unmarked) [troxol, reference compound]					
